# Measurements published in patent US20140057915A1, “KINASE INHIBITORS” (TOPIVERT PHARMA LIMITED, priority 2012, published 2014).
# Where two headings read alike, the source gives them in different places.
# Experiments:
# p38 MAPKα = p38 MAPKα (Homo sapiens, UniProt Q16539); experiment: Enzyme binding assay (Kinomescan); conditions: read-out: % Inhibition of kinase binding at 500 nM, p38 MAPKα
# Protocol: (§1) Enzyme Binding Assays (Kinomescan)
# (§2) The kinase enzyme binding activities of compounds disclosed herein were determined using a proprietary assay which measures active site-directed competition binding to an immobilized ligand (Fabian, M. A. et al., Nature Biotechnol., 2005, 23:329-336). These assays were conducted by DiscoverX (formerly Ambit; San Diego, Calif.). The percentage inhibition produced by incubation with a test compound is calculated relative to the non-inhibited control.
# p38 MAPKγ = p38 MAPKγ (Homo sapiens, UniProt P53778); experiment: Enzyme binding assay (Kinomescan); conditions: read-out: % Inhibition of kinase binding at 500 nM, p38 MAPKγ
# Protocol: as §1
# (§3) These assays were conducted by DiscoverX (formerly Ambit; San Diego, Calif.). The percentage inhibition produced by incubation with a test compound is calculated relative to the non-inhibited control.
# cSrc = cSrc (Homo sapiens, UniProt P12931); experiment: Enzyme binding assay (Kinomescan); conditions: read-out: % Inhibition of kinase binding at 500 nM, cSrc
# Protocol: as §3
# GSK3α = GSK3α (Homo sapiens, UniProt P49840); experiment: Enzyme binding assay (Kinomescan); conditions: read-out: % Inhibition of kinase binding at 500 nM, GSK3α
# Protocol: as §3
# [1] = system: 71 receptors and 26 enzymes; experiment: Diversity Profile (Cerep); assay type: binding; conditions: 300 nM
# Protocol: Studies were conducted by Cerep (Celle-Lévescault, France) to investigate the binding of the compound of Example 77 to a diverse selection of receptors and to investigate either the inhibition or activation of a selection of enzymes (the “Diversity Profile” comprising a total of 71 receptors and 26 enzymes).
# CYP3A4 = CYP3A4 (Homo sapiens, UniProt P08684); experiment: Time-dependent inhibition of cytochromes (CYP450 TDI); assay type: in vitro ADME; conditions: human, pooled human liver microsomes, pH 7.4, probe midazolam, CYP3A4 (midazolam probe), 15 μM, human hepatic microsomes, read-out: 15 μM % Inh
# Protocol: (§4) (ii) Time-Dependent Inhibition of Cytochromes
# (§5) CYP450 time-dependent inhibition (TDI) assays were performed with test compound at six test concentrations, 0.062 μM to 15 μM (n=2). The test compounds was pre-incubated for 30 minutes with pooled human hepatic microsomes in 0.1 M Tris buffer, pH 7.4, at 37° C. in the presence of cofactor NADPH. A parallel series of incubations (n=2) were prepared with no pre-incubation. Probe substrates were then added (with additional cofactor) and further incubated for the times specified. Concentrations of probe substrates used in the incubations have been optimised to maintain first order reaction conditions.
# (§6) Reactions were terminated with acetonitrile containing analytical internal standard (carbamazepine), samples then centrifuged to remove microsomal protein and analysed using optimised LC/MS-MS conditions. The MS data were normalised to internal standard and compared to the appropriate solvent controls to determine the amount of metabolite formed from the probe substrate relative to the “uninhibited” controls. The results are quoted as % inhibition. These values were then plotted using the sigmoidal dose response equation (shown below) and IC50's calculated.
# (§7) Y=bottom+((top-bottom)/1+10̂((Log IC50−X)*Hill slope)) • X=Log concentration • Y=response
# (§8) Variation in probe turnover between plate wells means that inhibition values recorded below 10-15% may not be significant.
# CYP2C9 = CYP2C9 (Homo sapiens, UniProt P11712); experiment: as above; assay type: in vitro ADME; conditions: human, pooled human liver microsomes, pH 7.4, probe diclofenac, CYP2C9 (diclofenac probe), 15 μM, human hepatic microsomes, read-out: 15 μM % Inh
# Protocol: as §4, §5, §6, §7, §8
# CYP450 [2] = molecular target: CYP450 (Homo sapiens, UniProt P08684); experiment: as above; assay type: in vitro ADME; conditions: CYP3A4 (midazolam probe), human hepatic microsomes
# Protocol: as §4, §5, §6, §7, §8
# CYP450 [3] = molecular target: CYP450 (Homo sapiens, UniProt P11712); experiment: as above; assay type: in vitro ADME; conditions: CYP2C9 (diclofenac probe), human hepatic microsomes
# Protocol: as §4, §5, §6, §7, §8
# SCID mice = experiment: Adoptive transfer in mice; conditions: mouse
# Protocol: (D) Adoptive Transfer in Mice
# On Study day 0, female Balb/C mice are terminated and spleens obtained for CD45RB^high cell isolation (Using SCID IBD cell Separation protocol). Approximately 4×10^5 cells/mL CD45RB^high cells are then injected IP (100 μL/mouse) into female SCID animals. On study day 14, mice are weighed and randomized into treatment groups based on body weight. On Day 21, compounds are administered BID, via oral gavage, in a peanut oil vehicle at the dose levels outlined below and a dose volume of 5 mL/kg. Treatment continues until study day 42, at which point the animals are necropsied 4 hours after am administration. The colon length and weight is recorded and used as a secondary endpoint in the study as a measurement of colon oedema. The colon is then divided into six cross-sections, four of which are used for histopathology scoring (primary endpoint) and two are homogenised for cytokine analysis. Data shown is the % inhibition of the induction window between naïve animals and vehicle animals, where higher inhibition implies closer to the non-diseased, naïve, phenotype.
# B-Raf (V600e) = B-Raf (V600e) (Homo sapiens, UniProt P15056, V600E); experiment: Enzyme binding assay (KINOMEscan)
# Protocol: as §2
# [4] = system: Salmonella typhimurium, strains TA98 and TA100; experiment: Mutagenicity assessment (bacterial reverse mutation screen); conditions: presence or absence of S-9 mix; up to 5000 μg/plate
# Protocol: Mutagenicity Assessment (Bacterial Reverse Mutation Screen)
# Studies were conducted by Sequani (Ledbury, Herefordshire, UK) to assess the compound of Example 77 in vitro for its ability to induce mutations in two histidine dependent auxotrophic mutants of Salmonella typhimurium, strains TA98 and TA100.
# The mutation screen was conducted using the plate incorporation method and was performed in both the presence and absence of S-9 mix (a liver post-mitochondrial fraction derived from the livers of Aroclor 1254 treated rats). The bacteria were exposed to the compound of Example 77 dissolved in dimethylsulphoxide, which solvent was also used as the negative control. The dose levels used were 0.32, 1.6, 8, 40, 200, 1000 or 5000 μg/plate.
# Sequence of CYP450 (Homo sapiens, UniProt P11712) (P11712 whole entry): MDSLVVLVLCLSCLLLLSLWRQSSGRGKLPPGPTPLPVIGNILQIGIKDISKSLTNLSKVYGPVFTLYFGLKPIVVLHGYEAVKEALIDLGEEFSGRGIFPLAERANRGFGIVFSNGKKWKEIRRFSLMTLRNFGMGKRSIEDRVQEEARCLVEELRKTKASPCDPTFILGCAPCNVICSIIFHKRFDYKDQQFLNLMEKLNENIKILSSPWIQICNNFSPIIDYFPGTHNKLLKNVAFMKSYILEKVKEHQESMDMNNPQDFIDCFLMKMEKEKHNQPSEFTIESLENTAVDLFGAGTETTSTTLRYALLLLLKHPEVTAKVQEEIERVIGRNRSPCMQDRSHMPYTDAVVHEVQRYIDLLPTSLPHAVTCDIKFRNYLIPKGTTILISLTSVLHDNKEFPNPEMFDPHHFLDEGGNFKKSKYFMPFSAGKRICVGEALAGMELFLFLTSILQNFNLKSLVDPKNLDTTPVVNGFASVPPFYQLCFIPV
# Sequence of CYP2C9 (P11712 whole entry): as above
# Sequence of CYP450 (Homo sapiens, UniProt P08684) (P08684 whole entry): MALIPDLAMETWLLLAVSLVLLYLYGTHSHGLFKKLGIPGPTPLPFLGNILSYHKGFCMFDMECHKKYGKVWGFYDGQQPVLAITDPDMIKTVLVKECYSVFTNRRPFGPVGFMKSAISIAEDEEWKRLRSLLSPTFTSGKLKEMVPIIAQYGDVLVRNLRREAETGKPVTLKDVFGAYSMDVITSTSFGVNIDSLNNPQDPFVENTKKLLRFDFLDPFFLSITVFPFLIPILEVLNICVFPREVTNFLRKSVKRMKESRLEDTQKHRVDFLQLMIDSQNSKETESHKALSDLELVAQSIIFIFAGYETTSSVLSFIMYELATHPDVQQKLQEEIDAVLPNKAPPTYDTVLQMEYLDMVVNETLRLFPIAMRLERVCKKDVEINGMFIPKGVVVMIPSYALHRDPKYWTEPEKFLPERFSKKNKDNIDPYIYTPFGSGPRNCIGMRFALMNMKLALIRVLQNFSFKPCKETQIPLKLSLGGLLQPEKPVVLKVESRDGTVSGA
# Sequence of CYP3A4 (P08684 whole entry): as above
# Sequence of p38 MAPKγ (P53778 whole entry): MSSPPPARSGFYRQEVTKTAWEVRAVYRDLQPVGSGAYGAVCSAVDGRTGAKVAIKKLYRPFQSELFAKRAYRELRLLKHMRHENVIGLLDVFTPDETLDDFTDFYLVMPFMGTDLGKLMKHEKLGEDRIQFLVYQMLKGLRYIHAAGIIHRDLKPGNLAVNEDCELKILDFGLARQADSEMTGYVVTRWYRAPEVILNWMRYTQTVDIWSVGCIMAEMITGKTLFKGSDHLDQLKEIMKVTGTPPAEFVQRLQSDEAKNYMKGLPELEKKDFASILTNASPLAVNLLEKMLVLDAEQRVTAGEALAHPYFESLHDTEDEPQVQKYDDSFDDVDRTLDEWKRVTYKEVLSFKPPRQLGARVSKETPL
# Sequence of cSrc (P12931 whole entry): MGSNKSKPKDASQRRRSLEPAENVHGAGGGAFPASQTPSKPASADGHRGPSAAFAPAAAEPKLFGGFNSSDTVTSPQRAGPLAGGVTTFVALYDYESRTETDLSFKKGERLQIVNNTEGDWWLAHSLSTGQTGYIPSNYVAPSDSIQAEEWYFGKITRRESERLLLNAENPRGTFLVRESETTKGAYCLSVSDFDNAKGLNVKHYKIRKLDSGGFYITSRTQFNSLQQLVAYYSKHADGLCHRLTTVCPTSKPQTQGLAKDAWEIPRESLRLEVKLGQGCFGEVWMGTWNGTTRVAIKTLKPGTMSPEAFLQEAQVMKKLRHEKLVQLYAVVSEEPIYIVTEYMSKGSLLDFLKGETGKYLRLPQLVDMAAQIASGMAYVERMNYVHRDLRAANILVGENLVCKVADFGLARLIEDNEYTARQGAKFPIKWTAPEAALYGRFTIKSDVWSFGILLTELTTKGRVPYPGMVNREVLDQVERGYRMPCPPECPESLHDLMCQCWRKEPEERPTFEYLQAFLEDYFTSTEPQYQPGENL
# Sequence of B-Raf (V600e) (P15056 whole entry V600E): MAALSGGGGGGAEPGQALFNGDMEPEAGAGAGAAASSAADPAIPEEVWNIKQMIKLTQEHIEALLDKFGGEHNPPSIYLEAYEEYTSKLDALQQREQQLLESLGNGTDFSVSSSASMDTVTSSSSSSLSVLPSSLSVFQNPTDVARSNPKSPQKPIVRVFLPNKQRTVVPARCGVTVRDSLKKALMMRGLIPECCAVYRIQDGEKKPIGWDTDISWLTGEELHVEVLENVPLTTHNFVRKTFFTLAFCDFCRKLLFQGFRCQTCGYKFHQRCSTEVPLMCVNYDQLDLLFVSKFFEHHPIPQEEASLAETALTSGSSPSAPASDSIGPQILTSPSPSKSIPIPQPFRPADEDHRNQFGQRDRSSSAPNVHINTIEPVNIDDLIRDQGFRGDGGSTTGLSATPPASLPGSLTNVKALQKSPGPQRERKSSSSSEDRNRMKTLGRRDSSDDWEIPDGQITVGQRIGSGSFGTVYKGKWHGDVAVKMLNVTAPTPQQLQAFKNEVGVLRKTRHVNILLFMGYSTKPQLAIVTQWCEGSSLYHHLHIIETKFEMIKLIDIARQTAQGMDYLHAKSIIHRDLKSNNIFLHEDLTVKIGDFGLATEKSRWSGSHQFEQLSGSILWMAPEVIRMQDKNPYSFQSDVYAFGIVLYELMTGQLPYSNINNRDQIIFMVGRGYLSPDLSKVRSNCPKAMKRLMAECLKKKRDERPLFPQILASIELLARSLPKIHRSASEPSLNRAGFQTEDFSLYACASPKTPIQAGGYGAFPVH
# Sequence of GSK3α (P49840 whole entry): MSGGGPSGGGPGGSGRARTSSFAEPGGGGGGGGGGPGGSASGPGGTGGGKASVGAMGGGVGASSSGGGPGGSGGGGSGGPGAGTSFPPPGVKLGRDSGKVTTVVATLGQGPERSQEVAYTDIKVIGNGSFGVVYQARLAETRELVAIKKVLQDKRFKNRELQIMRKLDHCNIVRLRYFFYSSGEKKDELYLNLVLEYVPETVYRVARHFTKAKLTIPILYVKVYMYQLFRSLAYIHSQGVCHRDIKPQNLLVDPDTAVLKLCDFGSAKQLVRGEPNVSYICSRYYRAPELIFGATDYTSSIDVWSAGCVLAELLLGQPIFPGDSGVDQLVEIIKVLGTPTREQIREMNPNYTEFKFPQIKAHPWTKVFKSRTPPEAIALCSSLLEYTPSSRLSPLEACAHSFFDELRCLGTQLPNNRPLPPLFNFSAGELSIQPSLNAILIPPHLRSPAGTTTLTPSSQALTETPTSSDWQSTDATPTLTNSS
# Sequence of p38 MAPKα (Q16539 whole entry): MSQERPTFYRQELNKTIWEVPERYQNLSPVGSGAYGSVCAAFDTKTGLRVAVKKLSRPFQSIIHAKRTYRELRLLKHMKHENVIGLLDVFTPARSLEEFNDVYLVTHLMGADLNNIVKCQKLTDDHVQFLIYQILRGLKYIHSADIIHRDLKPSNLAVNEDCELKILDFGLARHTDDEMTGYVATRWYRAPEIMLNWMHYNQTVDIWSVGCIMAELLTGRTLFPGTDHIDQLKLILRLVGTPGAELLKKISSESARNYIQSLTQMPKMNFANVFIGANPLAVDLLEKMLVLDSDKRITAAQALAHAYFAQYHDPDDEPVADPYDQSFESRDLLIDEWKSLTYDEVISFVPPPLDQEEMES
inhibition at 0.5 µM (p38 MAPKα) [%],inhibition at 0.5 µM (p38 MAPKγ) [%],inhibition at 0.5 µM (cSrc) [%],inhibition at 0.5 µM (GSK3α) [%],SMILES,inhibition of control specific binding in the receptor binding assays or enzyme assays [1],inhibition at 15 µM (CYP3A4; 0 min preincubation) [%],inhibition at 15 µM (CYP3A4; 30 min preincubation) [%],inhibition at 15 µM (CYP2C9; 0 min preincubation) [%],inhibition at 15 µM (CYP2C9; 30 min preincubation) [%],IC50 (CYP450 [2]; 0 min preincubation) [µM],IC50 (CYP450 [2]; 30 min preincubation) [µM],IC50 (CYP450 [3]; 0 min preincubation) [µM],IC50 (CYP450 [3]; 30 min preincubation) [µM],activity in adoptive transfer in vivo model of colonic inflammation (SCID mice),effect on the binding of the kinase B-Raf (V600e) to its standard ligand (B-Raf (V600e)),revertant colonies (mutagenic effects) [4]
95,82,100,19,"COc1cc(Nc2nccc(Oc3ccc(NC(=O)Nc4cc(C(C)C)nn4-c4ccc(C)cc4)c4ccccc34)n2)cc(C(=O)NCCN2CCOCC2)c1 [Example 8, 3-((4-((4-(3-(3-Isopropyl-1-(p-tolyl)-1H-pyrazol-5-yl)ureido)naphthalen-1-yl)oxy)pyrimidin-2-yl)amino)-5-methoxy-N-(2-morpholinoethyl)benzamide]",,,,,,,,,,,,
,,,,"C#Cc1cc(Nc2nccc(Oc3ccc(NC(=O)Nc4cc(C(C)(C)C)nn4-c4ccc(OC)cc4)c4ccccc34)n2)cc(C(=O)NCCN2CCOCC2)c1 [Example 77, 3-((4-((4-(3-(3-(tert-Butyl)-1-(4-methoxyphenyl)-1H-pyrazol-5-yl)ureido)-naphthalen-1-yl)oxy)pyrimidin-2-yl)amino)-5-ethynyl-N-(2-morpholinoethyl)benzamide]",less than 25%,15,35,-4,1,> 15,> 15,> 15,> 15,significant activity,did not have any effect on the binding,no dose-related or statistically significant increases in revertant colonies
